Test: Growth promotion in chicks, titration dosage, Example IX (Table III)
Format: in vivo, broiler cross chicks
Text: The concentrations used in this test were 6.25, 12.5, 25, 50, 100, 200 and 400 g of the Product of Example I per ton of the Basal Ration described in Example VII above. The same number and size chick treatment groups were used in this test as in Example VIII above.

Q: What does the source list for `O=[N+]([O-])c1ccc(C=Cc2nc(Nc3ccc(O)cc3)c3ccccc3n2)o1` [Example I, 2-[2-(5-nitro-2-furyl)vinyl]-4-(p-hydroxyanilino)quinazoline]?
A: Average 4 Week Performance: Feed Efficiency (6.25 g/T): 1.657; Average 4 Week Performance: Gain (6.25 g/T): 714.6 g; Improved Response Over Basal Ration: Feed Efficiency (6.25 g/T): +3.4%; Improved Response Over Basal Ration: Gain (6.25 g/T): -3.4%; activity (in words) (6.25 g/T): little or no activity; Average 4 Week Performance: Feed Efficiency (12.5 g/T): 1.652; Average 4 Week Performance: Gain (12.5 g/T): 765.3 g; Improved Response Over Basal Ration: Feed Efficiency (12.5 g/T): +3.7%; Improved Response Over Basal Ration: Gain (12.5 g/T): +3.4%; Average 4 Week Performance: Feed Efficiency (25 g/T): 1.603; Average 4 Week Performance: Gain (25 g/T): 805.7 g; Improved Response Over Basal Ration: Feed Efficiency (25 g/T): +6.5%; Improved Response Over Basal Ration: Gain (25 g/T): +8.9%; Average 4 Week Performance: Feed Efficiency (50 g/T): 1.609; Average 4 Week Performance: Gain (50 g/T): 785.3 g; Improved Response Over Basal Ration: Feed Efficiency (50 g/T): +6.2%; Improved Response Over Basal Ration: Gain (50 g/T): +6.1%; Average 4 Week Performance: Feed Efficiency (100 g/T): 1.663; Average 4 Week Performance: Gain (100 g/T): 742.7 g; Improved Response Over Basal Ration: Feed Efficiency (100 g/T): +3.0%; Improved Response Over Basal Ration: Gain (100 g/T): +0.4%; weight gain improvement (in words) (100 g/T): unexplained absence of weight gain improvement; Average 4 Week Performance: Feed Efficiency (200 g/T): 1.609; Average 4 Week Performance: Gain (200 g/T): 782.5 g; Improved Response Over Basal Ration: Feed Efficiency (200 g/T): +6.2%; Improved Response Over Basal Ration: Gain (200 g/T): +5.8%; Average 4 Week Performance: Feed Efficiency (400 g/T): 1.678; Average 4 Week Performance: Gain (400 g/T): 751.5 g; Improved Response Over Basal Ration: Feed Efficiency (400 g/T): +2.2%; Improved Response Over Basal Ration: Gain (400 g/T): +1.6%; response (in words) (400 g/T): sharp downturn; level at which noticeable growth promotion began (in vivo): 12.5 g/T; optimum concentration (economics and efficacy) (in vivo): 25 g/T
